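Where inhibition never reached the appropriate level, the endpoint shown equals the highest concentration tested. Otherwise, values were interpolated linearly from a five-concentration, 48-hour dose response in 96-well plates. At the GI50, growth is halved.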 Calls of active or inactive are those of the source. Rule as the data show it: active = GI50 up to about 1.1 µM and inactive = higher.

Test systems include UACC-62; SR; MDA-MB-231; ACHN; HOP-92; IGROV-1; LOX IMVI; SF-539; BT-549; KM12; A498; K562; A549; SK-OV-3; M14; HT-29; CAKI-1; PC-3; SF-268; NCI-H226.
Holding throughout (assay): NCI-60 cell line screen, 48 h

Consider `Cc1cc(C(C)(C)C)cc(CNC2CCCCC2)c1O`, for which the GI50 was 16 µM (inactive) in the assay on UACC-62; 21.8 µM (inactive) with SR; 18 µM (inactive) in the assay on MDA-MB-231; 17.1 µM (inactive) in the assay on ACHN; 15.5 µM (inactive) in the assay on HOP-92; 13.8 µM (inactive) with IGROV-1. Further, the GI50 in the assay with LOX IMVI is 16 µM (inactive); in the assay with SF-539, 18.2 µM (inactive); in the assay with BT-549 it was 16.3 µM (inactive); in the assay with KM12, 19.9 µM (inactive); with A498 it was 16.6 µM (inactive); in the assay on K562, 21.7 µM (inactive). In addition, the GI50 is 18.4 µM (inactive) with A549; 20 µM (inactive) with SK-OV-3; 15.7 µM (inactive) in the assay with M14; 17.3 µM (inactive) with HT-29; 16.4 µM (inactive) with CAKI-1; 16.5 µM (inactive) in the assay on PC-3. Besides, the GI50 in the assay on SF-268 is 16.1 µM (inactive).

Turning to `ClC(Cl)(Cl)C(N1CCN(c2ccccc2)CC1)N1CCN(c2ccccc2)CC1`, the GI50 was > 100 µM (inactive) with UACC-62; 45 µM (inactive) with SR; > 100 µM (inactive) in the assay on MDA-MB-231; > 100 µM (inactive) in the assay with NCI-H226; > 100 µM (inactive) in the assay with ACHN; > 100 µM (inactive) with HOP-92. Further, the GI50 in the assay on IGROV-1, in the assay on LOX IMVI, in the assay with BT-549, in the assay with KM12, in the assay on A498 and with K562 was > 100 µM (inactive) in each case. For the same compound, the GI50 in the assay on A549, with M14, with HT-29, in the assay on CAKI-1, in the assay with PC-3 and in the assay with SF-268 was > 100 µM (inactive) in each case.

`CCOC(=O)C1OC(C2(C)OC3(OC4(C=CC3O)OC(C(C)C(=O)C(C)C(O)C(C)CC(C)c3c(Cl)cc(C)c(O)c3C(=O)O)C(C)CC4C)C(C)C2OC)CC1O` (stereo not drawn): the GI50 was 0.27 µM (active) with UACC-62; 0.207 µM (active) with SR; 1.15 µM (inactive) in the assay with MDA-MB-231; 0.24 µM (active) in the assay on NCI-H226; 0.441 µM (active) in the assay with ACHN; 2.13 µM (inactive) with HOP-92. For the same compound, the GI50 with IGROV-1 was 2.1 µM (inactive); in the assay on LOX IMVI, 0.413 µM (active); with SF-539, 0.65 µM (active); in the assay on BT-549, 2.08 µM (inactive); in the assay on KM12, 1.28 µM (inactive); in the assay on A498, 0.46 µM (active). For the same compound, the GI50 with K562 was 0.505 µM (active); in the assay with A549 it was 0.406 µM (active); in the assay with SK-OV-3, 0.177 µM (active); in the assay with M14, 0.48 µM (active); with HT-29 it was 0.34 µM (active); with CAKI-1, 0.752 µM (active). Moreover, the results for the GI50 with PC-3 and in the assay on SF-268 were 1.6 µM (inactive) and 0.155 µM (active), respectively.

As to `CCCCCCCCCCCCCCCCSS(C)(=O)=O`, the GI50 was 22.4 µM (inactive) in the assay on UACC-62; 4.65 µM (inactive) in the assay on SR; > 100 µM (inactive) in the assay with MDA-MB-231; > 27.6 µM (inactive) in the assay on NCI-H226; 13.4 µM (inactive) in the assay on ACHN; 15.5 µM (inactive) in the assay with HOP-92. Also, the GI50 was 32.4 µM (inactive) with IGROV-1; 3.73 µM (inactive) in the assay with LOX IMVI; 17.9 µM (inactive) with SF-539; 4.42 µM (inactive) in the assay on BT-549; > 100 µM (inactive) in the assay on KM12; 52.4 µM (inactive) with A498. Further, the GI50 was 9.64 µM (inactive) in the assay on K562; > 65.3 µM (inactive) in the assay on A549; 97.9 µM (inactive) with SK-OV-3; 9.42 µM (inactive) in the assay on M14; 25.2 µM (inactive) in the assay with HT-29; 10.1 µM (inactive) in the assay on CAKI-1. In addition, the results for the GI50 in the assay with PC-3 and with SF-268 were > 100 µM (inactive) and 10.7 µM (inactive), respectively.

As for `COC(=O)/C=C(\C)CC(O)/C=C(\C)CCC=C(C)C` (stereo not drawn), the GI50 in the assay with UACC-62 was 40.7 µM (inactive); in the assay on SR, 23 µM (inactive); with MDA-MB-231, > 100 µM (inactive); with NCI-H226 it was 45 µM (inactive); with ACHN, 64.7 µM (inactive); in the assay on HOP-92 it was 71.6 µM (inactive). Also, the GI50 with IGROV-1 is > 100 µM (inactive); in the assay on LOX IMVI, 29.4 µM (inactive); in the assay with SF-539, > 100 µM (inactive); in the assay with BT-549, 31.2 µM (inactive); in the assay on KM12, 40.4 µM (inactive); with A498, 34.7 µM (inactive). In addition, the GI50 in the assay on K562 was 32.1 µM (inactive); in the assay on A549, 34.3 µM (inactive); with SK-OV-3, > 100 µM (inactive); in the assay with M14 it was 38.5 µM (inactive); in the assay on HT-29 it was 24.1 µM (inactive); with CAKI-1, 92.7 µM (inactive). Besides, the GI50 in the assay on PC-3 is 29.8 µM (inactive).

Consider `Cc1c[n+]([O-])c2ccccc2[n+]1[O-]`, for which the GI50 in the assay on UACC-62, in the assay on SR, in the assay on MDA-MB-231, in the assay with ACHN, in the assay with HOP-92 and in the assay on IGROV-1 was > 100 µM (inactive) each time. In addition, the GI50 in the assay with LOX IMVI, with SF-539, in the assay on BT-549, with KM12, in the assay on A498 and in the assay with K562 was > 100 µM (inactive) each time. Moreover, the GI50 in the assay with A549, in the assay with SK-OV-3, with M14, in the assay with HT-29, in the assay on CAKI-1 and in the assay with PC-3 was > 100 µM (inactive) in each case. Besides, the GI50 with SF-268 was > 100 µM (inactive).

Turning to `O=C1C2=C(CC3=C(C2)CS(=O)(=O)C3)C(=O)C2=C1CC1=C(C2)CS(=O)(=O)C1`, the GI50 in the assay on UACC-62 was 15.8 µM (inactive); with SR, 4.4 µM (inactive); in the assay on MDA-MB-231, 9.59 µM (inactive); with NCI-H226, 24.4 µM (inactive); in the assay on ACHN it was 36.3 µM (inactive); in the assay on HOP-92, > 46.7 µM (inactive). Besides, the GI50 in the assay with IGROV-1 is 15.4 µM (inactive); with LOX IMVI it was 14.3 µM (inactive); in the assay with SF-539 it was 36.3 µM (inactive); in the assay on BT-549 it was 18.5 µM (inactive); with KM12 it was > 19.7 µM (inactive); in the assay on A498, 43.7 µM (inactive). The GI50 in the assay on K562 is 10.6 µM (inactive); with A549, > 90.2 µM (inactive); in the assay on SK-OV-3, 38.5 µM (inactive); with M14, > 37.7 µM (inactive); in the assay on HT-29 it was 8.59 µM (inactive); with CAKI-1, 36 µM (inactive). Further, the GI50 is 10.8 µM (inactive) with PC-3 and > 26.4 µM (inactive) in the assay with SF-268.

With `CN(C)CCN1C(=O)CC[C@@]2(C)C1=CC[C@@H]1[C@@H]2CC[C@@]2(C)[C@H]1CC[C@]2(C)O`, the GI50 in the assay with UACC-62, with SR, with MDA-MB-231, in the assay on NCI-H226, with ACHN and in the assay on HOP-92 was > 100 µM (inactive) in each case. Further, the GI50 with IGROV-1, in the assay with LOX IMVI, in the assay on SF-539, in the assay with BT-549, in the assay with KM12 and in the assay on A498 was > 100 µM (inactive) in each case. Besides, the GI50 in the assay with K562 was > 100 µM (inactive); with A549, > 100 µM (inactive); in the assay on SK-OV-3, > 100 µM (inactive); in the assay on M14 it was > 100 µM (inactive); in the assay on HT-29, 39.8 µM (inactive); with CAKI-1, > 100 µM (inactive). In addition, the GI50 in the assay with PC-3 and in the assay with SF-268 was > 100 µM (inactive) in each case.

For `CC(C)(C)OC(=O)NCC(C#N)CNC(=O)OC(C)(C)C`, the GI50 with UACC-62, in the assay with SR, in the assay with MDA-MB-231, with NCI-H226, in the assay on ACHN and with HOP-92 was > 100 µM (inactive) each time. Also, the GI50 in the assay on IGROV-1, in the assay with LOX IMVI, in the assay on SF-539, in the assay with BT-549, in the assay with KM12 and with A498 was > 100 µM (inactive) each time. Also, the GI50 is > 100 µM (inactive) in the assay with K562; > 100 µM (inactive) in the assay on A549; > 100 µM (inactive) with SK-OV-3; > 100 µM (inactive) in the assay with M14; > 10 µM (inactive) in the assay on CAKI-1; > 100 µM (inactive) in the assay on PC-3. The GI50 in the assay with SF-268 was > 100 µM (inactive).

Consider `CCCCCCCCOc1ccc(/C=C/C2=[N+](CCO)CCO2)cc1`, for which the GI50 with UACC-62 was 4.28 µM (inactive); in the assay with SR it was 2.19 µM (inactive); in the assay on MDA-MB-231 it was 3.78 µM (inactive); in the assay with NCI-H226, 3.01 µM (inactive); in the assay with ACHN, 3.69 µM (inactive); with HOP-92 it was 2.34 µM (inactive). For the same compound, the GI50 was 3.83 µM (inactive) with IGROV-1; 3.12 µM (inactive) in the assay with SF-539; 3.44 µM (inactive) with BT-549; 3.27 µM (inactive) in the assay with KM12; 2.9 µM (inactive) in the assay on A498; 2.07 µM (inactive) in the assay on K562. Also, the GI50 with A549 is 2.7 µM (inactive); in the assay with SK-OV-3, 2.54 µM (inactive); in the assay on M14, 3.8 µM (inactive); with HT-29 it was 2.4 µM (inactive); in the assay with CAKI-1, 7.05 µM (inactive); with PC-3 it was 2.94 µM (inactive). For the same compound, the GI50 in the assay with SF-268 was 5.27 µM (inactive).

The values above are taken from ChEMBL document CHEMBL1201862, “PubChem BioAssay data set” (2004).
